One data set addresses T1, glucocorticoid receptor (Homo sapiens, UniProt P04150).
T1 construct: containing 50-200 ug of A549 cell extract and 1.86 nM [^3H]-dexamethasone; host or cells: A549 human lung epithelial cells (sonicated cell extract)
T1 sequence (P04150 1-777): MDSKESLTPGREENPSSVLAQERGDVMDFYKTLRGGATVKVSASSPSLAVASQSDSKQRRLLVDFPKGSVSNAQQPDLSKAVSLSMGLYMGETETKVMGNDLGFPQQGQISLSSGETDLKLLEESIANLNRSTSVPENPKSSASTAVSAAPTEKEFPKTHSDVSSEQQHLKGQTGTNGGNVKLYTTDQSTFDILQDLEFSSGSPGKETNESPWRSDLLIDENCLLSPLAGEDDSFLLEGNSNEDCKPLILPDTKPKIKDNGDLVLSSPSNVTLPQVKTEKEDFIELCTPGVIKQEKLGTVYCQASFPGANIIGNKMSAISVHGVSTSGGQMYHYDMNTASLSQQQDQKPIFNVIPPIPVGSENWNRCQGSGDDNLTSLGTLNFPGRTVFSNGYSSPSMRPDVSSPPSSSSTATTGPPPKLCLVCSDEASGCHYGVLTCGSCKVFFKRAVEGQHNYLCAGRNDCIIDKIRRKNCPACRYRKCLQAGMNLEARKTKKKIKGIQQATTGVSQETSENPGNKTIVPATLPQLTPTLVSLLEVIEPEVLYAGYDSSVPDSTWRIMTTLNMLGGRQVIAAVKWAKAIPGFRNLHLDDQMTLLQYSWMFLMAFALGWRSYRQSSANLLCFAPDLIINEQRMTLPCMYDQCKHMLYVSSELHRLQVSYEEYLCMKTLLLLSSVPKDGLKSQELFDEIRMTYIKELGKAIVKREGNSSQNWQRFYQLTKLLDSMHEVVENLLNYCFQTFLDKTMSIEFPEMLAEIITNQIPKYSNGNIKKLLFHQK
Put plainly: Glucocorticoid Receptor Binding Assay ([3H]-dexamethasone, A549 cell extract). The note with it: [3H]-dexamethasone binding, read-out: GR Ki. The procedure, abridged:
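A549 cell extract (50–200 ug) incubated with 1.86 nM [3H]-dexamethasone and test compound for 16 h at 4 °C in Tris-HCl pH 7.2 buffer with glycerol and molybdate. Unbound radioligand removed by dextran-coated charcoal, then supernatant bound counts measured by scintillation.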

The target in another data set is T2, human MR (Homo sapiens, UniProt P08235).
T2 construct: The full length human MR gene is cloned from a human kidney or human brain cDNA library; His tag from the pAcHLT vector (own knowledge); made in house; host or cells: Sf9 insect cells (baculovirus, pAcHLT transfer vector)
T2 sequence (P08235 1-984): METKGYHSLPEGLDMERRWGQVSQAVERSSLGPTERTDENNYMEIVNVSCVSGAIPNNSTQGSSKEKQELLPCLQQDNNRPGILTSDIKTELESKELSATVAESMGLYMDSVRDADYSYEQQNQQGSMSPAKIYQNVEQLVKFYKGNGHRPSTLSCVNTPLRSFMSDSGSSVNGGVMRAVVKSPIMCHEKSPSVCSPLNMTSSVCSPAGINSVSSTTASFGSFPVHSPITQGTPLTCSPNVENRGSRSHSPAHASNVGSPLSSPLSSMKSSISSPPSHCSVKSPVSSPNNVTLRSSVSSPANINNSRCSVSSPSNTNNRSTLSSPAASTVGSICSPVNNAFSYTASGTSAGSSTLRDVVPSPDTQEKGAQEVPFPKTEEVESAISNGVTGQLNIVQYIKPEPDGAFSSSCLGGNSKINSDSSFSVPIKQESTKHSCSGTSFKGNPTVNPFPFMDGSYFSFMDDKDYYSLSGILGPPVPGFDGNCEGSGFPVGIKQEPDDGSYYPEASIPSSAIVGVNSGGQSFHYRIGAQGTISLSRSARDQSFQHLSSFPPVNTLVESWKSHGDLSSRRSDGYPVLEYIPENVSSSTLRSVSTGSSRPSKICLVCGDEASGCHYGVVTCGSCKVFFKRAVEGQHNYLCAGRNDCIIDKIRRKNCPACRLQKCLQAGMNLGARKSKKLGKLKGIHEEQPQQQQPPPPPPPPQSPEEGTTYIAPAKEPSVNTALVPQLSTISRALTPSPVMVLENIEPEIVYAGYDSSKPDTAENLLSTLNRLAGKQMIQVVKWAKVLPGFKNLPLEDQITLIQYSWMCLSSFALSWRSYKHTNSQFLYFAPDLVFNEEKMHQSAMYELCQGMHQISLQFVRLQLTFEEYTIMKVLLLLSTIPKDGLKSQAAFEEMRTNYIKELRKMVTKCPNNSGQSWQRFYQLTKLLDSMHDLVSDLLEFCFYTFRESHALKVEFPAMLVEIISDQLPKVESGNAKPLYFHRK
Put plainly: Mineralocorticoid Receptor Binding Assay ([3H]-aldosterone). The note with it: [3H]-aldosterone binding, human MR expressed in Sf9 cells; read-out: MR Ki. The procedure, abridged:
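Lysate supernatant of Sf9 cells expressing full-length human MR (20-25 μg protein) was incubated with 0.5 nM [3H]-aldosterone and test compound in molybdate/Tris/phosphate/glycerol buffer, pH 7.5, ~16 h at 4 °C. Bound ligand was filtered and counted by scintillation; IC50 is the concentration halving [3H]-aldosterone binding.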

By Ki is commonly meant the dissociation constant of the complex between target and ligand, obtained from inhibition or displacement. As a reminder, the melting point is the temperature of the solid-liquid transition. On to `CS(=O)(=O)Nc1cc(C=C2c3ccccc3CCc3ccccc32)ccc1O` [Example 64, N-[5-(10,11-Dihydro-dibenzo[a,d]cyclohepten-5-ylidenemethyl)-2-hydroxy-phenyl]-methanesulfonamide], for which the melting point was found to be 122.6 °C. On glucocorticoid receptor, the inhibition constant Ki was under 500 nM. On human MR, the Ki is under 500 nM.

Compound `FC(F)Oc1cccc(C=C2c3ccccc3CCc3ccccc32)c1` [Example 65, 5-(3-Difluoromethoxy-benzylidene)-10,11-dihydro-5H-dibenzo[a,d]cycloheptene] gave a melting point of 91.3 °C. Besides, the inhibitory constant (Ki) at glucocorticoid receptor is under 10000 nM. For the same compound, the Ki at human MR is under 500 nM.

`O=Cc1ccc(C=C2c3ccccc3CCc3ccccc32)cc1` [Example 68, 4-(10,11-Dihydro-dibenzo[a,d]cyclohepten-5-ylidenemethyl)-benzaldehyde] returned a melting point of 106.4 °C. Also, the Ki at glucocorticoid receptor was under 500 nM. Moreover, at human MR, the inhibition constant Ki was under 500 nM.

The compound `O=Cc1ccccc1C=C1c2ccccc2CCc2ccccc21` [Example 69, 2-(10,11-Dihydro-dibenzo[a,d]cyclohepten-5-ylidenemethyl)-benzaldehyde] had a melting point of 198.9 °C. The inhibition constant Ki at glucocorticoid receptor was under 500 nM. Besides, the Ki on human MR is under 500 nM.

For `O=Cc1cccc(C=C2c3ccccc3CCc3ccccc32)c1` [Example 70, 3-(10,11-Dihydro-dibenzo[a,d]cyclohepten-5-ylidenemethyl)-benzaldehyde], the melting point stood at 86.7 °C. In addition, the Ki at glucocorticoid receptor was under 1000 nM. In addition, on human MR, the Ki is under 500 nM.

The compound `FC(F)c1ccccc1C=C1c2ccccc2CCc2ccccc21` [Example 71, 5-(2-Difluoromethyl-benzylidene)-10,11-dihydro-5H-dibenzo[a,d]cycloheptene] had a melting point of 13.3 °C. Further, the inhibition constant Ki on glucocorticoid receptor was under 500 nM. Further, the Ki on human MR is under 500 nM.

`FC(F)c1cccc(C=C2c3ccccc3CCc3ccccc32)c1` [Example 72, 5-(3-Difluoromethyl-benzylidene)-10,11-dihydro-5H-dibenzo[a,d]cycloheptene] displayed a melting point of 92.5 °C. The inhibitory constant (Ki) on glucocorticoid receptor was under 10000 nM. Moreover, the inhibition constant Ki on human MR was under 500 nM.

`OCc1ccccc1C=C1c2ccccc2CCc2ccccc21` [Example 74, [2-(10,11-Dihydro-dibenzo[a,d]cyclohepten-5-ylidenemethyl)-phenyl]-methanol] displayed a melting point of 121.8 °C. In addition, on glucocorticoid receptor, the Ki was under 500 nM. Also, the Ki at human MR was under 500 nM.

Regarding `N#Cc1ccccc1C=C1c2ccccc2CCc2ccccc21` [Example 80, 2-(10,11-Dihydro-dibenzo[a,d]cyclohepten-5-ylidenemethyl)-benzonitrile], the melting point was determined as 185.4 °C. In addition, on glucocorticoid receptor, the inhibition constant Ki was under 500 nM. In addition, the Ki at human MR was under 500 nM.

On to `N#Cc1cccc(C=C2c3ccccc3CCc3ccccc32)c1` [Example 81, 3-(10,11-Dihydro-dibenzo[a,d]cyclohepten-5-ylidenemethyl)-benzonitrile], for which the melting point worked out at 115.7 °C. Moreover, the inhibition constant Ki on glucocorticoid receptor is under 10000 nM. In addition, on human MR, the Ki was under 500 nM.

On to `Nc1cccc(C=C2c3ccccc3CCc3ccccc32)c1` [Example 86, 3-(10,11-Dihydro-dibenzo[a,d]cyclohepten-5-ylidenemethyl)-phenylamine], for which the melting point was 204.3 °C. Moreover, the inhibitory constant (Ki) on glucocorticoid receptor was under 500 nM. For the same compound, the Ki on human MR was under 500 nM.

In the case of `Nc1ccccc1C=C1c2ccccc2CCc2ccccc21` [Example 87, 2-(10,11-Dihydro-dibenzo[a,d]cyclohepten-5-ylidenemethyl)-phenylamine], the melting point came to 145.2 °C. Besides, the Ki on glucocorticoid receptor is under 500 nM. At human MR, the Ki was under 500 nM.

Compound `Nc1ccc(C=C2c3ccccc3CCc3ccccc32)cc1` [Example 88, 4-(10,11-Dihydro-dibenzo[a,d]cyclohepten-5-ylidenemethyl)-phenylamine] gave a melting point of over 250 °C. Moreover, the inhibition constant (Ki) at glucocorticoid receptor is under 1000 nM. For the same compound, at human MR, the Ki was under 500 nM.

The compound `CCS(=O)(=O)Nc1cccc(C=C2c3ccccc3CCc3ccccc32)c1` [Example 91, Ethanesulfonic acid [3-(10,11-hydro-dibenzo[a,d]cyclohepten-5-ylidenemethyl)-phenyl]-amide] had a melting point of 180.2 °C. Also, the Ki at glucocorticoid receptor is under 500 nM. The inhibitory constant (Ki) on human MR was under 500 nM.

In the case of `CC(C)S(=O)(=O)Nc1cccc(C=C2c3ccccc3CCc3ccccc32)c1` [Example 92, Propane-2-sulfonic acid [3-(10,11-dihydro-dibenzo[a,d]cyclohepten-5-ylidenemethyl)-phenyl]-amide], the melting point turned out to be 187.7 °C. In addition, the inhibitory constant (Ki) at glucocorticoid receptor is under 500 nM. Also, the inhibitory constant (Ki) at human MR was under 500 nM.

`O=S(=O)(Nc1cccc(C=C2c3ccccc3CCc3ccccc32)c1)c1ccccc1` [Example 93, N-[3-(10,11-Dihydrodibenzo[a,d]cyclohepten-5-ylidenemethyl)-phenyl]-benzenesulfonamide] returned a melting point of 121.9 °C. Moreover, the inhibitory constant (Ki) on glucocorticoid receptor is under 500 nM. In addition, the Ki at human MR is under 500 nM.

As for `Cc1noc(C)c1S(=O)(=O)Nc1cccc(C=C2c3ccccc3CCc3ccccc32)c1` [Example 94, 3,5-Dimethyl-isoxazole-4-sulfonic acid [3-(10,11-dihydro-dibenzo[a,d]cyclohepten-5-ylidenemethyl)-phenyl]-amide], the melting point was 149.3 °C. Besides, on glucocorticoid receptor, the Ki was under 500 nM. Further, the Ki on human MR is under 500 nM.

On to `Cn1cnc(S(=O)(=O)Nc2cccc(C=C3c4ccccc4CCc4ccccc43)c2)c1` [Example 95, 1-Methyl-1H-imidazole-4-sulfonic acid [3-(10,11-dihydro-dibenzo[a,d]cyclohepten-5-ylidenemethyl)-phenyl]-amide], for which the melting point came to 257 °C. Further, the inhibitory constant (Ki) at glucocorticoid receptor was under 1000 nM. Further, the Ki at human MR is under 500 nM.

Take `CS(=O)(=O)Nc1ccc(C=C2c3ccccc3CCc3ccccc32)cc1` [Example 99, N-[4-(10,11-Dihydro-dibenzo[a,d]cyclohepten-5-ylidenemethyl)-phenyl]-methanesulfonamide]: the melting point worked out at 210.7 °C. Also, the inhibition constant (Ki) at glucocorticoid receptor is under 1000 nM. Also, the Ki on human MR is under 500 nM.

`CC(=O)Nc1ccc(C=C2c3ccccc3CCc3ccccc32)cc1` [Example 116, N-[4-(10,11-Dihydro-dibenzo[a,d]cyclohepten-5-ylidenemethyl)-phenyl]-acetamide] showed a melting point of 134.8 °C. For the same compound, the Ki on glucocorticoid receptor was under 500 nM. Moreover, the inhibition constant (Ki) on human MR is under 500 nM.

Source of the values: patent publication US20060063759A1, “Tricyclic steroid hormone nuclear receptor modulators” (priority 2002, published 2006).
